Reference: the supplement of paper PMC10307832

Tests used:
Experiment in all cases: relative viability (nuclei count vs DMSO), 5 days (fraction); higher = more cells survive
201T = test system: 201T
How it was run: (§1)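 Relative viability is defined as nuclei in treated wells over nuclei in vehicle wells. Duplicate plates were run and medians reported. Lung cancer cell lines in 1536-well plates were dosed by pin tool one day after seeding, with one drug or with a fixed anchor-drug dose plus five library-drug doses (not always all listed) in √10 steps, and nuclei were counted after 5 days.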

NCI-H661 = test system: NCI-H661
How it was run: as §1

H3255 = test system: H3255
How it was run: as §1

NCI-H1666 = test system: NCI-H1666
How it was run: as §1

NCI-H1915 = test system: NCI-H1915
How it was run: as §1

NCI-H650 = test system: NCI-H650
How it was run: as §1

COR-L 105 = test system: COR-L 105
How it was run: as §1

RERF-LC-KJ = test system: RERF-LC-KJ
How it was run: as §1

LCLC-97TM1 = test system: LCLC-97TM1
How it was run: as §1

NCI-H2087 = test system: NCI-H2087
How it was run: as §1

NCI-H2405 = test system: NCI-H2405
How it was run: as §1

PC-14 = test system: PC-14
How it was run: as §1

EPLC-272H = test system: EPLC-272H
How it was run: as §1

NCI-H23 = test system: NCI-H23
How it was run: as §1

NCI-H2126 = test system: NCI-H2126
How it was run: as §1

NCI-H520 = test system: NCI-H520
How it was run: as §1

LC-2-ad = test system: LC-2-ad
How it was run: as §1

NCI-H322M = test system: NCI-H322M
How it was run: as §1

HCC-827 = test system: HCC-827
How it was run: as §1

NCI-H647 = test system: NCI-H647
How it was run: as §1

HCC-78 = test system: HCC-78
How it was run: as §1

NCI-H2347 = test system: NCI-H2347
How it was run: as §1

Which relative viability (201T; first compound 0.04 µM) does the source give for COc1cc(N2CCC(C(N)=O)CC2)ccc1Nc1nc(N)c(Cl)c(Nc2ccccc2S(=O)(=O)C(C)C)n1 [HG-5-88-01] + Cc1nc(NC(=O)N2CCC[C@H]2C(N)=O)sc1-c1ccnc(C(C)(C)C(F)(F)F)c1 [Alpelisib] (partner 2 µM) here?
Its relative viability is 0.99.

What about the relative viability (201T; first compound 0.1265 µM) of the same molecule?
The relative viability was 1.06.

What about the relative viability (201T; first compound 0.4 µM) of the same molecule?
Its relative viability is 1.06.

What about the relative viability (201T; first compound 1.265 µM) of the same molecule?
The relative viability was 0.974.

What about the relative viability (201T; first compound 4 µM) of the same molecule?
Its relative viability is 1.09.

And the relative viability (NCI-H661; first compound 0.04 µM)?
The relative viability was 0.609.

And the relative viability (NCI-H661; first compound 0.1265 µM)?
The relative viability was 0.773.

What about the relative viability (NCI-H661; first compound 0.4 µM) of the same molecule?
The relative viability was 0.916.

What about the relative viability (NCI-H661; first compound 4 µM) of the same molecule?
Its relative viability is 0.693.

What about the relative viability (H3255; first compound 0.04 µM) of the same molecule?
The relative viability was 0.714.

And the relative viability (H3255; first compound 0.1265 µM)?
Its relative viability is 0.63.

And the relative viability (H3255; first compound 0.4 µM)?
The relative viability was 0.645.

And the relative viability (H3255; first compound 4 µM)?
Its relative viability is 0.422.

What about the relative viability (NCI-H1666; first compound 0.04 µM) of the same molecule?
The relative viability was 1.

And the relative viability (NCI-H1666; first compound 0.1265 µM)?
The relative viability was 1.02.

What about the relative viability (NCI-H1666; first compound 0.4 µM) of the same molecule?
Its relative viability is 0.816.

And the relative viability (NCI-H1666; first compound 1.265 µM)?
Its relative viability is 0.706.

And the relative viability (NCI-H1666; first compound 4 µM)?
The relative viability was 0.657.

And the relative viability (NCI-H1915; first compound 0.04 µM)?
Its relative viability is 1.08.

And the relative viability (NCI-H1915; first compound 0.1265 µM)?
The relative viability was 1.03.

What about the relative viability (NCI-H1915; first compound 0.4 µM) of the same molecule?
Its relative viability is 1.12.

And the relative viability (NCI-H1915; first compound 1.265 µM)?
The relative viability was 1.04.

What about the relative viability (NCI-H1915; first compound 4 µM) of the same molecule?
The relative viability was 0.958.

And the relative viability (NCI-H650; first compound 0.04 µM)?
Its relative viability is 0.689.

And the relative viability (NCI-H650; first compound 0.1265 µM)?
The relative viability was 1.18.

And the relative viability (NCI-H650; first compound 0.4 µM)?
The relative viability was 1.04.

What about the relative viability (NCI-H650; first compound 1.265 µM) of the same molecule?
Its relative viability is 0.816.

And the relative viability (NCI-H650; first compound 4 µM)?
Its relative viability is 0.8.

What about the relative viability (COR-L 105; first compound 0.04 µM) of the same molecule?
The relative viability was 0.955.

What about the relative viability (COR-L 105; first compound 0.1265 µM) of the same molecule?
The relative viability was 1.1.

What about the relative viability (COR-L 105; first compound 0.4 µM) of the same molecule?
Its relative viability is 0.971.

What about the relative viability (COR-L 105; first compound 1.265 µM) of the same molecule?
The relative viability was 0.606.

What about the relative viability (COR-L 105; first compound 4 µM) of the same molecule?
Its relative viability is 0.711.

What about the relative viability (RERF-LC-KJ; first compound 0.04 µM) of the same molecule?
The relative viability was 0.838.

And the relative viability (RERF-LC-KJ; first compound 0.1265 µM)?
The relative viability was 0.675.

What about the relative viability (RERF-LC-KJ; first compound 0.4 µM) of the same molecule?
Its relative viability is 0.935.

What about the relative viability (RERF-LC-KJ; first compound 1.265 µM) of the same molecule?
The relative viability was 0.551.

What about the relative viability (RERF-LC-KJ; first compound 4 µM) of the same molecule?
The relative viability was 0.874.

And the relative viability (LCLC-97TM1; first compound 0.04 µM)?
Its relative viability is 0.264.

What about the relative viability (LCLC-97TM1; first compound 0.1265 µM) of the same molecule?
The relative viability was 0.217.

And the relative viability (LCLC-97TM1; first compound 0.4 µM)?
Its relative viability is 0.198.

What about the relative viability (LCLC-97TM1; first compound 1.265 µM) of the same molecule?
The relative viability was 0.196.

What about the relative viability (LCLC-97TM1; first compound 4 µM) of the same molecule?
Its relative viability is 0.142.

What about the relative viability (NCI-H2087; first compound 0.04 µM) of the same molecule?
Its relative viability is 0.967.

What about the relative viability (NCI-H2087; first compound 0.1265 µM) of the same molecule?
Its relative viability is 1.17.

What about the relative viability (NCI-H2087; first compound 0.4 µM) of the same molecule?
Its relative viability is 0.997.

What about the relative viability (NCI-H2087; first compound 1.265 µM) of the same molecule?
Its relative viability is 1.04.

What about the relative viability (NCI-H2087; first compound 4 µM) of the same molecule?
The relative viability was 0.974.

And the relative viability (NCI-H2405; first compound 0.04 µM)?
Its relative viability is 0.749.

What about the relative viability (NCI-H2405; first compound 0.1265 µM) of the same molecule?
The relative viability was 0.832.

What about the relative viability (NCI-H2405; first compound 0.4 µM) of the same molecule?
The relative viability was 0.726.

What about the relative viability (NCI-H2405; first compound 1.265 µM) of the same molecule?
The relative viability was 0.418.

What about the relative viability (NCI-H2405; first compound 4 µM) of the same molecule?
The relative viability was 0.794.

And the relative viability (PC-14; first compound 0.04 µM)?
The relative viability was 0.884.

What about the relative viability (PC-14; first compound 0.1265 µM) of the same molecule?
Its relative viability is 0.849.

What about the relative viability (PC-14; first compound 0.4 µM) of the same molecule?
Its relative viability is 0.882.

And the relative viability (PC-14; first compound 1.265 µM)?
The relative viability was 0.89.

And the relative viability (PC-14; first compound 4 µM)?
Its relative viability is 0.851.

What about the relative viability (EPLC-272H; first compound 0.04 µM) of the same molecule?
Its relative viability is 0.931.

What about the relative viability (EPLC-272H; first compound 0.1265 µM) of the same molecule?
Its relative viability is 0.838.

What about the relative viability (EPLC-272H; first compound 0.4 µM) of the same molecule?
Its relative viability is 1.12.

What about the relative viability (EPLC-272H; first compound 1.265 µM) of the same molecule?
Its relative viability is 0.804.

And the relative viability (EPLC-272H; first compound 4 µM)?
The relative viability was 0.253.

What about the relative viability (NCI-H23; first compound 0.04 µM) of the same molecule?
The relative viability was 0.832.

What about the relative viability (NCI-H23; first compound 0.1265 µM) of the same molecule?
Its relative viability is 0.738.

What about the relative viability (NCI-H23; first compound 0.4 µM) of the same molecule?
Its relative viability is 0.67.

And the relative viability (NCI-H23; first compound 1.265 µM)?
Its relative viability is 0.847.

And the relative viability (NCI-H23; first compound 4 µM)?
The relative viability was 0.496.

And the relative viability (NCI-H2126; first compound 0.04 µM)?
The relative viability was 0.81.

And the relative viability (NCI-H2126; first compound 0.1265 µM)?
Its relative viability is 0.79.

And the relative viability (NCI-H2126; first compound 0.4 µM)?
Its relative viability is 0.774.

And the relative viability (NCI-H2126; first compound 1.265 µM)?
The relative viability was 0.681.

What about the relative viability (NCI-H2126; first compound 4 µM) of the same molecule?
Its relative viability is 0.716.

What about the relative viability (NCI-H520; first compound 0.04 µM) of the same molecule?
The relative viability was 0.85.

And the relative viability (NCI-H520; first compound 0.1265 µM)?
The relative viability was 0.94.

What about the relative viability (NCI-H520; first compound 0.4 µM) of the same molecule?
Its relative viability is 0.884.

What about the relative viability (NCI-H520; first compound 1.265 µM) of the same molecule?
Its relative viability is 1.01.

And the relative viability (NCI-H520; first compound 4 µM)?
Its relative viability is 1.03.

And the relative viability (LC-2-ad; first compound 0.04 µM)?
The relative viability was 0.91.

What about the relative viability (LC-2-ad; first compound 0.1265 µM) of the same molecule?
The relative viability was 0.924.

And the relative viability (LC-2-ad; first compound 0.4 µM)?
The relative viability was 0.84.

And the relative viability (LC-2-ad; first compound 1.265 µM)?
Its relative viability is 0.856.

What about the relative viability (LC-2-ad; first compound 4 µM) of the same molecule?
Its relative viability is 0.871.

What about the relative viability (NCI-H322M; first compound 0.04 µM) of the same molecule?
The relative viability was 0.774.

What about the relative viability (NCI-H322M; first compound 0.1265 µM) of the same molecule?
Its relative viability is 0.841.

What about the relative viability (NCI-H322M; first compound 0.4 µM) of the same molecule?
The relative viability was 0.903.

What about the relative viability (NCI-H322M; first compound 1.265 µM) of the same molecule?
Its relative viability is 0.726.

What about the relative viability (NCI-H322M; first compound 4 µM) of the same molecule?
Its relative viability is 0.639.

And the relative viability (HCC-827; first compound 0.04 µM)?
Its relative viability is 1.04.

What about the relative viability (HCC-827; first compound 0.1265 µM) of the same molecule?
Its relative viability is 1.01.

What about the relative viability (HCC-827; first compound 0.4 µM) of the same molecule?
Its relative viability is 1.05.

What about the relative viability (HCC-827; first compound 1.265 µM) of the same molecule?
The relative viability was 0.849.

And the relative viability (HCC-827; first compound 4 µM)?
The relative viability was 0.353.

What about the relative viability (NCI-H647; first compound 0.04 µM) of the same molecule?
Its relative viability is 1.09.

And the relative viability (NCI-H647; first compound 0.1265 µM)?
The relative viability was 1.15.

And the relative viability (NCI-H647; first compound 1.265 µM)?
The relative viability was 1.09.

What about the relative viability (NCI-H647; first compound 4 µM) of the same molecule?
Its relative viability is 1.4.

And the relative viability (HCC-78; first compound 0.04 µM)?
Its relative viability is 0.352.

What about the relative viability (HCC-78; first compound 0.1265 µM) of the same molecule?
The relative viability was 0.304.

What about the relative viability (HCC-78; first compound 0.4 µM) of the same molecule?
The relative viability was 0.263.

What about the relative viability (HCC-78; first compound 1.265 µM) of the same molecule?
Its relative viability is 0.207.

And the relative viability (HCC-78; first compound 4 µM)?
Its relative viability is 0.241.

And the relative viability (NCI-H2347; first compound 0.04 µM)?
Its relative viability is 1.09.

And the relative viability (NCI-H2347; first compound 0.1265 µM)?
The relative viability was 1.14.

What about the relative viability (NCI-H2347; first compound 0.4 µM) of the same molecule?
The relative viability was 1.1.

And the relative viability (NCI-H2347; first compound 1.265 µM)?
Its relative viability is 0.984.

And the relative viability (NCI-H2347; first compound 4 µM)?
The relative viability was 0.973.
